Reference: paper PMC5007466, “VCP recruitment to mitochondria causes mitophagy impairment and neurodegeneration in models of Huntington's disease” (Nature Communications, 2016)

Key:
YAC128 mice = assay: VCP mitochondrial level, YAC128 mouse striatum; format: in vivo; conditions: YAC128, 3 mg kg^−1 per day from 3 to 6 months versus TAT, n=6
Procedure: Cells were washed with cold PBS and incubated on ice for 30 min in a lysis buffer (250 mM sucrose, 20 mM HEPES-NaOH, pH 7.5, 10 mM KCl, 1.5 mM MgCl2, 1 mM EDTA, protease inhibitor cocktail and phosphatase inhibitor cocktail). Mouse brains were minced and homogenized in the lysis buffer and then placed on ice for 30 min. Collected cells or tissue were disrupted 20 times by repeated aspiration through a 25-gauge needle, followed by a 30-gauge needle. The homogenates were spun at 800 g for 10 min at 4 °C, and the resulting supernatants were spun at 10,000 g for 20 min at 4 °C. The pellets were washed with lysis buffer and spun at 10,000 g again for 20 min at 4 °C. The final pellets were suspended in lysis buffer containing 1% Triton X-100 and were mitochondrial-rich lysate fractions. The supernatant was centrifuged at 100,000 g, 4 °C, for 1 h, the pellets were suspended in lysis buffer containing 1% Triton X-100 as ER fractions. The final supernatant was cytosolic fractions. The mitochondrial proteins VDAC, the ER protein WFS1 and the cytosolic protein Enolase were used as loading controls for mitochondrial, ER and cytosolic fractions, respectively.
YAC128 (FVB-Tg(YAC128)53Hay/J, JAX stock number: 004938) breeders (FVB/N genetic background) were purchased from Jackson Laboratories. […]
Protein concentrations were determined by Bradford assay. […]

[1] = tested on: interaction of mtHtt with Tim23; assay: Co-immunoprecipitation mtHtt/Tim23; format: cell-based; conditions: HV-3 treatment; total cell lysates, IP/WB
Procedure: (b) Stick drawings of VCP and Htt main domains. […] Immunoprecipitates were analysed by WB with the indicated antibodies. […] VCP mitochondrial levels were determined by WB. Loading control: VDAC. Data are mean±s.e.m. (g–i) ANOVA with Holm-Sidak post hoc test.

R6/2 mice = assay: DARPP-32 immunostaining of striatum; format: in vivo, mouse; conditions: R6/2, 3 mg kg^−1 per day, n=6
Procedure: Male hemizygous R6/2 mice (Tg) and their age-matched wt littermates (5-week-old) were implanted with a 28-day osmotic pump (Alzet, Cupertino CA) containing TAT control peptide or HV-3 peptide, which delivered peptides to the mice at a rate of 3 mg kg^−1 per day. The first pump was implanted subcutaneously in the back of 5-week-old mice between the shoulders and replaced once, after 4 weeks.
Mice were deeply anaesthetized and transcardially perfused with 4% paraformaldehyde in PBS. Brains were processed for paraffin embedment. Brain sections (5 μm, coronal) were used for immunohistochemical localization of DARPP-32 (1:500, Epitomics) using the IHC Select HRP/DAB kit (Millipore). Quantitation of DARPP-32 immunostaining was conducted using NIH image J software. The same image exposure times and threshold settings were used for sections from all treatment groups.

[2] = tested on: HdhQ111 striatal cells and striata of HD R6/2 and YAC128 mice; assay: VCP total protein level, HD cells and HD mouse striata (western blot); conditions: HV-3 treatment, HD cell cultures and HD animal brains
Procedure: Protein concentrations were determined by Bradford assay. Protein was resuspended in Laemmli buffer, loaded on SDS–PAGE, and transferred onto nitrocellulose membranes. Membranes were probed with the indicated antibodies, followed by visualization with ECL. Representative blots have been cropped for presentation. Images of full-size blots are presented in Supplementary Fig. 9. […]
green). Lower: the enlarged area is labeled in green. (f) The sequence in VCP corresponding to HV-3 in Htt was deleted (Δ VCP). GST, GST-VCP, or GST-ΔVCP was incubated with total lysates of mouse brain for 16 hours followed by Western blot with anti -Htt antibodies. The representative blots are from three independent experiments.
Supplementary Figure 5: Treatment of peptide inhibitor HV-3 in HD animal models. (a) HD R6/2 mice and wildtype littermates were treated with either a control peptide or peptide HV-3 (3 mg/kg/day, subcutaneous administration with an Alzet osmotic pump) from 5 to 13 weeks of age. The pump was replaced every four weeks. […] Mouse behaviors and HD -associated pathology were determined […] after beginning treatment. […]
(b) To t a l protein lysates were extracted from HdhQ111 striatal cells and the striata of HD R6/2 and YAC128 mice. VCP protein levels were determined by Western blot analysis. […]

[3] = tested on: Cathepsin B in HdhQ111 mouse striatal cells; assay: Lysosomal Cathepsin B activity; format: cell-based; conditions: 3 uM/day for 3 days
Procedure: Figure 5 Treatment of HV-3 reduces excessive mitophagy in HD cell cultures and HD mouse brains. (a) HdhQ7 and HdhQ111 cells were treated with control siRNA (con) or VCP siRNA (siVCP) for 48 h. Mitochondria were isolated and LC3 mitochondrial levels were determined by WB. Representative blots are from three independent experiments. The quantitation of LC3 II levels on mitochondria is provided on the right. VADC was used as a loading control. (b) Flag-VCP and GFP-LC3B were co-transfected into wild-type striatal cells. Mitochondria were isolated after 36 h of transfection. The GFP-LC3B levels on mitochondria were examined by WB. VDAC was used as a loading control. Representative blots are from three independent experiments. Histogram: quantitation of GFP-LC3B mitochondrial protein level. HdhQ7 and HdhQ111 cells were treated with control peptide TAT or peptide HV-3 (3 uM/day for 3 days). (c) HdhQ111 cells were transfected with GFP-LC3B for 24 h. The number of GFP-LC3B puncta was quantitated and shown in the histogram. Scale bars: 10 μm. (d) Enzyme activity of lysosomal Cathepsin B was measured using a Cathepsin B assay kit. […] (e) Mitochondrial mass was measured by the fluorescent density of Mitotracker green. […] Histogram: the number of mitophagosomes per 100 μm^2 was counted and quantitated. Fifteen random areas in the striatum of each animal were analyzed. […]

## CSCC[C@H](NC(=O)[C@@H](NC(=O)[C@H](CC(C)C)NC(=O)[C@@H](NC(=O)[C@H](Cc1c[nH]cn1)NC(=O)CCCCCNC(=O)[C@H](CCCNC(=N)N)NC(=O)[C@H](CCCNC(=N)N)NC(=O)[C@H](CCCNC(=N)N)NC(=O)[C@H](CCC(N)=O)NC(=O)[C@H](CCCNC(=N)N)NC(=O)[C@H](CCCNC(=N)N)NC(=O)[C@H](CCCCN)NC(=O)[C@H](CCCCN)NC(=O)[C@H](CCCNC(=N)N)NC(=O)CNC(=O)[C@@H](N)Cc1ccc(O)cc1)C(C)C)C(C)C)C(=O)N[C@@H](CS)C(=O)N[C@@H](C)C(=O)N[C@H](C(N)=O)[C@@H](C)O [HV-3]
YAC128 mice
  VCP translocation to mitochondria in striatum: blocked VCP translocation to mitochondria
[1]
  interaction of mtHtt with Tim23: did not influence the interaction of mtHtt with Tim23
R6/2 mice
  area of DARPP-32-immunostained cells in striatum: increased by HV-3 treatment
[2]
  VCP total protein levels: no effects on VCP total protein levels
[3]
  Cathepsin B activity: reduced by treatment with HV-3
